Data taken from patent publication US20250387298A1, “FLEXIBLE MEDICAL CONTAINER” (B. Braun Melsungen AG, priority 2024, published 2025).
Read-outs that look alike come from different tables or passages of the source. Marks after values point to notes of the source that are not given here.

Test: Simulating experiments: Pip-Taz powder incubated with potential impurities in glass vials, turbidity after reconstitution
Format: physicochemical
Protocol: In order to mimic and evaluate the impact of Ti, Al, Sn, Ni, Mg, Cr, and Si containing impurities on the turbidity of piperacillin and tazobactam formation, the following simulating experiments were carried out (reference 6.7, Notebook BB5254/125, 134, 140-141, 145-146). Powders of piperacillin and tazobactam were mixed with different potential impurities in glass vials and incubated at 40° C. for 3 weeks. […] [table]

[1] = 40° C. for 3 weeks in glass vial, 0.3 g Pip-Taz with 1-2 mg chemical, reconstituted in 12 mL 0.9% NaCl
[2] = 40° C. for 3 weeks, chemical without drug, 0.9% NaCl
[3] = Drug & Chemicals minus Chemical only, 40° C. for 3 weeks
[4] = conclusion from Table 2, by metal/element of the impurity

Row | impact on the turbidity of piperacillin and tazobactam [4] | Molecule | Turbidity, Drug & Chemicals (Target Mole Ratio = 100:1, ~100 ppm for chemicals) [1] | Turbidity, Chemical only (~100 ppm) [2] | Turbidity Delta [3] | Turbidity, Drug & Chemicals | impact on the turbidity of piperacillin and tazobactam | Turbidity Delta | Turbidity, Chemical only (~100 ppm) | Turbidity, Drug & Chemicals (Target Mole Ratio = 100:1, ~100 ppm for chemicals)
1 | substantial effect | CC(=O)/C=C(/C)[O-].CC(=O)/C=C(/C)[O-].[O]=[Ti+2] [titanium (IV) oxyacetylacetonate] | 179.33 | 5.44 | 173.89 |  |  |  |  | 
2 |  | CC(=O)[O-].CC(=O)[O-].[Fe+2] [iron(ll) acetate] | 98.77 | 9.66 | 89.10 |  |  |  |  | 
3 |  | O.O.O.O.O.O.[Cl][Cr]([Cl])[Cl] [chromium (Ill) chloride hexahydrate] | 15.60 | 0.18 | 15.42 |  |  |  |  | 
4 | substantial effect | aluminum chloride hydrate | 3.01 | 0.13 | 2.88 |  |  |  |  | 
5 |  | O=S(=O)([O-])[O-].[Mg+2] [magnesium sulfate] |  |  |  | 1.53* | no impact |  |  | 
6 |  | CC(=O)[O-].CC(=O)[O-].CC(=O)[O-].CC(=O)[O-].[Sn+4] [tin (IV) acetate] |  |  |  |  |  | 1.04 | 0.08 | 1.13

Row | Molecule | impact on the turbidity of piperacillin and tazobactam [4] | Turbidity, Drug & Chemicals (Target Mole Ratio = 100:1, ~100 ppm for chemicals) [1] | Turbidity, Chemical only (~100 ppm) [2] | Turbidity Delta [3] | Turbidity, Drug & Chemicals | impact on the turbidity of piperacillin and tazobactam | Turbidity Delta | Turbidity, Chemical only (~100 ppm) | Turbidity, Drug & Chemicals (Target Mole Ratio = 100:1, ~100 ppm for chemicals)
7 | O[Si](O)(O)C1CCCCC1 [Cyclohexyl-dihydroxyl-hydroxylsilane] | substantial effect | 18.20 | 0.54 | 17.66 |  |  |  |  | 
